Bounds are passed on as bounds.

One experiment concerns HL-60 (leukemia) cells. The experiment in a line: MTT cytotoxicity assay, HL-60. It is filed as cell-based. The conditions noted are these: Homo sapiens, 48 h treatment, read-out: Anticancer activity IC50 HL-60. The procedure:
(§1) Compounds proposed in present invention were evaluated for their cytotoxic effect against panel of 5 cancer cell line viz. Panc-1 (pancreatic cancer), MCF-7 (breast cancer), PC-3 (prostate), HL-60 (leukemia) and A-375 (melanoma) using MTT assay. In each well of a 96-well plate, 3×10^3 cells were grown in 100 μL of medium. After 24 h, each test molecules were added to achieve a final concentration of 10 to 0.01 μmol/L, respectively. After 48 h of treatment, 20 μL of 2.5 mg/mL MTT (Organics Research, Inc.) solution in phosphate buffer saline was added to each well. […], supernatant was removed and formazan crystals were dissolved in 200 μL of DMSO. Absorbance was then measured at 570 nm using an absorbance plate reader (Bio-Rad Microplate Reader). Data are expressed as the percentage of viable cells in treated relative to non-treated conditions. Each experiment was repeated thrice and data was expressed as mean±SD of three independent experiments (Mordant, P. et al., Mol. Cancer Ther. 2010, 9, 358).
A general note: Formazan colour is commonly taken as a measure of viable cells.

Experiment [1] concerns MCF-7 (breast cancer) cells. The experiment in a line: MTT cytotoxicity assay, MCF-7. The format is cell-based. The conditions noted are these: Homo sapiens, MCF7, 48 h treatment, read-out: Anticancer activity IC50 MCF-7. The procedure:
as §1

Experiment [2] deals with PC-3 (prostate cancer) cells. The experiment in a line: MTT cytotoxicity assay, PC-3. It is filed as cell-based. Conditions: Homo sapiens, 48 h treatment, read-out: Anticancer activity IC50 PC-3. The procedure:
as §1

In the next experiment the target is PI3K-α (Homo sapiens, UniProt P42336). The experiment in a line: PI3K-α assay (ADP-Glo). The format is biochemical. Conditions: for inhibition at 0.5 µM / % Inhibition of PI3K-α at 0.5 μM: preliminary screening; for IC50: read-out: PI3K inhibition IC50 -α.
Experiment [3] has as its system Panc-1 (pancreatic cancer) cells. The experiment in a line: MTT cytotoxicity assay, Panc-1. The conditions noted are these: Homo sapiens, 48 h treatment, read-out: Anticancer activity IC50 Panc-1. The format is cell-based. The procedure:
as §1

Another experiment relates to A-375 (melanoma) cells. The experiment in a line: MTT cytotoxicity assay, A375. The format is cell-based. The conditions noted are these: Homo sapiens, 48 h treatment, read-out: Anticancer activity IC50 A375. The method, then: as §1
The target of another experiment is PI3K-δ (Homo sapiens, UniProt O00329). The experiment in a line: PI3K-δ assay (ADP-Glo). It is filed as biochemical. The conditions noted are these: for IC50: read-out: PI3K inhibition IC50 -δ; for Fold-selectivity for PI3K-α with respect to -δ: α versus δ isoform. For orientation: ADP-Glo first removes unused ATP, then detects ADP through luciferase.
The next experiment deals with PI3K-β (Homo sapiens, UniProt P42338). The experiment in a line: PI3K-β assay (ADP-Glo). It is filed as biochemical. The conditions noted are these: for IC50: read-out: PI3K inhibition IC50 -β; for Fold-selectivity for PI3K-α with respect to -β: α versus β isoform.
A further experiment concerns the target PI3K-γ (Homo sapiens, UniProt P48736). The experiment in a line: PI3K-γ assay (ADP-Glo). Conditions: for IC50: read-out: PI3K inhibition IC50 -γ; for Fold-selectivity for PI3K-α with respect to -γ: α versus γ isoform. It is filed as biochemical.

Chain of PI3K-β (P42338 whole entry, species assumed, canonical isoform): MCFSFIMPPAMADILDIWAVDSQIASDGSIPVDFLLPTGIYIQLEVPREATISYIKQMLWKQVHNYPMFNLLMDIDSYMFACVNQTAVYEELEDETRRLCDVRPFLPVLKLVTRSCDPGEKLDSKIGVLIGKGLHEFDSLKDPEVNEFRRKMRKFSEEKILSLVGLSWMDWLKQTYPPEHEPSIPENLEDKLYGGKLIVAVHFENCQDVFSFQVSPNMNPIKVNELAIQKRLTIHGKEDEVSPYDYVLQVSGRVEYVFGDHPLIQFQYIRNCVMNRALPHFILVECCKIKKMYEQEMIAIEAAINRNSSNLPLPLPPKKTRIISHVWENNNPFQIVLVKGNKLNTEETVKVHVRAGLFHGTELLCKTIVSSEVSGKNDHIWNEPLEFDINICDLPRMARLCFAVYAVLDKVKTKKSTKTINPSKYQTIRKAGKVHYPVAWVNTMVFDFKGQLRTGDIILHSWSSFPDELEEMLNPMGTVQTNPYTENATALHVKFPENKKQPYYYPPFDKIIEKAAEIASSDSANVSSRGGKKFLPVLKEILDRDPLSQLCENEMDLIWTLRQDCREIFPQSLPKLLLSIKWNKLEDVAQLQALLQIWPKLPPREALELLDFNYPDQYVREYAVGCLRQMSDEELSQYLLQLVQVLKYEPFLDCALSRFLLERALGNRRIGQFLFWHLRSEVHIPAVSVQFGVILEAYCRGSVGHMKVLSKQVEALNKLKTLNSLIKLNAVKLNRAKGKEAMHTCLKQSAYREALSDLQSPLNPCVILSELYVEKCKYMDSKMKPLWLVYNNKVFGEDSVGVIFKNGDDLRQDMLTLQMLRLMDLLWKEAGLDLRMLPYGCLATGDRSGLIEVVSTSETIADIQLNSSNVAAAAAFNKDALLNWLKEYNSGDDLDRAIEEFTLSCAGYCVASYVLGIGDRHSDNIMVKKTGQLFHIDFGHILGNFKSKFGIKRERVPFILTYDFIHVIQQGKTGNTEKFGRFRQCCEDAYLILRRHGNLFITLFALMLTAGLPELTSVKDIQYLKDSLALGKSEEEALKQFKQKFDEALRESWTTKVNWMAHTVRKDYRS
Chain of PI3K-β (P27986 whole entry partner, species assumed, canonical isoform): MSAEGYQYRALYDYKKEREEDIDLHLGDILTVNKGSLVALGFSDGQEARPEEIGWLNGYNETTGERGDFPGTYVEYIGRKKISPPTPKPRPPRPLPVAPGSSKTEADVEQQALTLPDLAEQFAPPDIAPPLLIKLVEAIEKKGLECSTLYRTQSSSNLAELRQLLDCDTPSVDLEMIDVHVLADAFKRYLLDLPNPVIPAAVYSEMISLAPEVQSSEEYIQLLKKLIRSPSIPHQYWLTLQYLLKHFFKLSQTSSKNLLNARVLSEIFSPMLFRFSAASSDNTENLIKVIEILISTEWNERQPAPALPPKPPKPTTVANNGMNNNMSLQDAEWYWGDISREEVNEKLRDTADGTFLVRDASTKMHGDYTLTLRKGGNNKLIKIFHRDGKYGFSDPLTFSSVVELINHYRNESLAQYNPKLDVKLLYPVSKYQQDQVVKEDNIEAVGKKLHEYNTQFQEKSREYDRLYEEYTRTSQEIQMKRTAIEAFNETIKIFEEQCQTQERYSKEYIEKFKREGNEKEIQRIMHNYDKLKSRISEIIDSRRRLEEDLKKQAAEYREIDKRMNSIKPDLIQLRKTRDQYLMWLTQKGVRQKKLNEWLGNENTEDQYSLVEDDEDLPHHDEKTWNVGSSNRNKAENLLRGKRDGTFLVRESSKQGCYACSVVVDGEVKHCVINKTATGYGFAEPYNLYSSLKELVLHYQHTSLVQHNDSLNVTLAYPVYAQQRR
Chain of PI3K-γ (P48736 whole entry, species assumed, canonical isoform): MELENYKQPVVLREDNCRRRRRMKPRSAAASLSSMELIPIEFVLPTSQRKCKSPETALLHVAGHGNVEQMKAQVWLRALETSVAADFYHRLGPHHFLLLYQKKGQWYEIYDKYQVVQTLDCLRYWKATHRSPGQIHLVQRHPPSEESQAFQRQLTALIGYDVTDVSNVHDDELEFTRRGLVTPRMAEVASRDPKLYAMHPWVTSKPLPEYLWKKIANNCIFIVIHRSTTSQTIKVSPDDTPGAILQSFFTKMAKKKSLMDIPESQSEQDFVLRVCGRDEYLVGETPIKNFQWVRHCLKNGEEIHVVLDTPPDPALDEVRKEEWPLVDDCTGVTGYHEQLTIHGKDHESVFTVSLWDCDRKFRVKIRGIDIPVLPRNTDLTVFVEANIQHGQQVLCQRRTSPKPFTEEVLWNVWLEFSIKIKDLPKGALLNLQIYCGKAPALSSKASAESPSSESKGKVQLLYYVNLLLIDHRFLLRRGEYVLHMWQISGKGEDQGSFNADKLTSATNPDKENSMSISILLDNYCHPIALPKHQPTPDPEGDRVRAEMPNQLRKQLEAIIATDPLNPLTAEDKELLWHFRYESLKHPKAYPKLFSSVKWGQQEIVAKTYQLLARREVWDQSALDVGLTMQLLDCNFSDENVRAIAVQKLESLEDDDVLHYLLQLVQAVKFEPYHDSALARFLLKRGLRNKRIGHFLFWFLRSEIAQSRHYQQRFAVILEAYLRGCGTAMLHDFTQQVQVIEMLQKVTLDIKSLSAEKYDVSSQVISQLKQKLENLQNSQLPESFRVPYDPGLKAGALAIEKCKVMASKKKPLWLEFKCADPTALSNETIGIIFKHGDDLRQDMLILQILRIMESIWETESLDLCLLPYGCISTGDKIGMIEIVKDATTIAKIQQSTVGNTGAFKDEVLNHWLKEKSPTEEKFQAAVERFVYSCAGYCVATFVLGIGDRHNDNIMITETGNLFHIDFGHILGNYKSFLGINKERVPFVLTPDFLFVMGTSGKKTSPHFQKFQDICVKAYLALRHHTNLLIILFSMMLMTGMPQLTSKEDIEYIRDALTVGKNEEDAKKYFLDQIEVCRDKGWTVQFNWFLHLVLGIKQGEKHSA
Chain of PI3K-α (P42336 whole entry): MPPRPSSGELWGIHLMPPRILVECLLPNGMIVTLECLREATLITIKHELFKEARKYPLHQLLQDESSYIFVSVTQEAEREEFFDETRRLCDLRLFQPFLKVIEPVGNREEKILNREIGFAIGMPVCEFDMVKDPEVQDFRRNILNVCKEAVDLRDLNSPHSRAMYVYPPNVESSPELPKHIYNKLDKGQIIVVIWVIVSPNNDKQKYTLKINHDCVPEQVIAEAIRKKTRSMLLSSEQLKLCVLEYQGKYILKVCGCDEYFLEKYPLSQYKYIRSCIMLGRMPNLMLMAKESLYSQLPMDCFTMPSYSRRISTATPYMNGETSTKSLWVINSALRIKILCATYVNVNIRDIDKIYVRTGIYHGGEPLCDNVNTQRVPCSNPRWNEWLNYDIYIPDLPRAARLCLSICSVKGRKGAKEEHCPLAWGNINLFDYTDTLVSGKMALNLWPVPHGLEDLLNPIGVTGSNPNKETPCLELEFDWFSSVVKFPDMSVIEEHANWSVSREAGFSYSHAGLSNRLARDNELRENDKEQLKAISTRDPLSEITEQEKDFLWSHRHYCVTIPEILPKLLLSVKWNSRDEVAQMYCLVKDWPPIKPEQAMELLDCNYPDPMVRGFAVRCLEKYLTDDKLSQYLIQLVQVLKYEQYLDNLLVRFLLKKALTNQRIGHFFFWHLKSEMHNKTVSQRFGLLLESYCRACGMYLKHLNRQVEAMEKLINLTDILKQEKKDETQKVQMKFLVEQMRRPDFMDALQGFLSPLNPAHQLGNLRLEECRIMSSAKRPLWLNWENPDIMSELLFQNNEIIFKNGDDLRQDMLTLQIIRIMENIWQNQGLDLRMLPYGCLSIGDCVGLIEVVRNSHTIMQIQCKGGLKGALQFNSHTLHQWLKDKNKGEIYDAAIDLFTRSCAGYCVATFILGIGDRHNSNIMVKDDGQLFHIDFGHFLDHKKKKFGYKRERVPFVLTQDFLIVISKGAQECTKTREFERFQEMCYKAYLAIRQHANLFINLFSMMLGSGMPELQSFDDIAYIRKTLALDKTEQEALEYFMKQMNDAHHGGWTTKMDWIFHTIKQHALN
Chain of PI3K-α (P27986 whole entry partner): as the sequence (P27986 whole entry partner, species assumed, canonical isoform) above
Chain of PI3K-δ (O00329 whole entry, species assumed, canonical isoform): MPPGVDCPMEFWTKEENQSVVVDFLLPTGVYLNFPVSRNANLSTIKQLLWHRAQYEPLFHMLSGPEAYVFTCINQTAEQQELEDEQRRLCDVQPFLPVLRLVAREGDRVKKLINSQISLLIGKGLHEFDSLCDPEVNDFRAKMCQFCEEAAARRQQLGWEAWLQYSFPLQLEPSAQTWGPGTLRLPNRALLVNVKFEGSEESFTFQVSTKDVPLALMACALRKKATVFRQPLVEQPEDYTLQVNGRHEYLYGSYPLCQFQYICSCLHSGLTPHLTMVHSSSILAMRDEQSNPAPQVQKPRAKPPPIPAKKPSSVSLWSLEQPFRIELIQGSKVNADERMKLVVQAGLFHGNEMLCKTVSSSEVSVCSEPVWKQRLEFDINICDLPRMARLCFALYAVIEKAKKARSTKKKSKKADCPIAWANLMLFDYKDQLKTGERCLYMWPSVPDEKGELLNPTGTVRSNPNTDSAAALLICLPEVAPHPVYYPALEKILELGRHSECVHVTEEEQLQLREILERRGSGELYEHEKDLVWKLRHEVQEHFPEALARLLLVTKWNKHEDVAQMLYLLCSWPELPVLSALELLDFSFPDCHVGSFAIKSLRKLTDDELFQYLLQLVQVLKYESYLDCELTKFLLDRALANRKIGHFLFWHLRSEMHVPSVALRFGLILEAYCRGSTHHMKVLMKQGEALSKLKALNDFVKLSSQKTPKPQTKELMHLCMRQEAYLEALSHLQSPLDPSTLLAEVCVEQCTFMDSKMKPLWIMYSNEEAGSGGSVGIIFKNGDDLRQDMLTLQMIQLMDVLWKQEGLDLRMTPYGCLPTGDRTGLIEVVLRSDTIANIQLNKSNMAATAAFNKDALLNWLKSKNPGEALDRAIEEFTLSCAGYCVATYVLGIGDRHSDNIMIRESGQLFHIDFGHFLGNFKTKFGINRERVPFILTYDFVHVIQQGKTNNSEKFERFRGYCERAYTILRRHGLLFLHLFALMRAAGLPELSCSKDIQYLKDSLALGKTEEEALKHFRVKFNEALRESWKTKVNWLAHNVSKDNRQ
Chain of PI3K-δ (P27986 whole entry partner, species assumed, canonical isoform): as the sequence (P27986 whole entry partner, species assumed, canonical isoform) above
Procedure for PI3K-α: The enzyme is assayed for 80 min after which 20 ul of ADP-Glo reagent is added. After a further incubation of 40 min, 40 ul of Kinase Detection Buffer is added. The assays are incubated for 40 min and then read on PerkinElmer Envision for 1 sec/well.
Procedure for PI3K-β: The enzyme is assayed for 60 min after which 20 ul of ADP-Glo reagent is added. After a further incubation of 40 min, 40 ul of kinase detection Buffer is added. The assays are incubated for 40 min and then read on PerkinElmer Envision for 1 sec/well.
Procedure for PI3K-γ: The enzyme is assayed for 75 min after which 20 ul of ADP-Glo reagent is added. After a further incubation of 40 min, 40 ul of Kinase Detection Buffer is added. The assays are incubated for 40 min and then read on PerkinElmer Envision for 1 sec/well.
Procedure for PI3K-δ: Compounds proposed in present invention were evaluated for their inhibitory activity on phosphoinositide-3-kinase-alpha and other isoforms (beta, gamma and delta). […] The protocols used for these bioassays are as follows:
The enzyme is assayed for 120 min after which 20 ul of ADP-Glo reagent is added. After a further incubation of 40 min, 40 ul of Kinase Detection Buffer is added. The assays are incubated for 40 min and then read on PerkinElmer Envision for 1 sec/well.

In general, IC50 refers to the concentration that gives 50% inhibition. What is called inhibition is the share of the control response that was lost under treatment. Low readings indicate little suppression, high ones strong suppression. Consider `CCOc1ccc(-c2ccc(-c3ccc4ncnc(Nc5ccc(CC#N)cc5)c4c3)cc2)cc1` [Compound 17, 6-(4-(4-ethoxyphenyl)phenyl)-4-(4-cyanomethyl)phenylamino-quinazoline], for which the 50% inhibitory concentration (IC50) in the experiment on HL-60 (leukemia) cells worked out at 16 µM; in [1], 26 µM; in experiment [2], 17 µM; in [3], 33 µM; in the experiment with A-375 (melanoma) cells it was 30 µM. Further, the inhibition at 0.5 µM against PI3K-α was less than 0%.

With `N#CCc1ccc(Nc2ncnc3ccc(-c4ccccc4C=O)cc23)cc1` [Compound 8, 6-(2-formylphenyl)-4-(4-cyanomethyl)phenylamino quinazoline], the 50% inhibitory concentration (IC50) with HL-60 (leukemia) cells was found to be 42 µM; in experiment [1], 91 µM; in experiment [2] it was 21 µM; in experiment [3], 90 µM; in the experiment on A-375 (melanoma) cells it was 39 µM. This compound yielded an inhibition at 0.5 µM against PI3K-α of 1.3%.

Consider `N#CCc1ccc(Nc2ncnc3ccc(-c4cccc5c4oc4ccccc45)cc23)cc1` [Compound 24, 6-(dibenzo(b,d)furan-4-yl)-4-(4-cyanomethyl)phenylamino-quinazoline], for which the IC50 was 12 µM in the experiment with HL-60 (leukemia) cells; 27 µM in [1]; 16 µM in experiment [2]; 31 µM in [3]; 36 µM in the experiment with A-375 (melanoma) cells. This compound came in with an inhibition at 0.5 µM against PI3K-α of 1.5%.

As to `N#CCc1ccc(Nc2ncnc3ccc(-c4cccc(O)c4)cc23)cc1` [Compound 10, 6-(3-hydroxyphenyl)-4-(4-cyanomethyl)phenylamino quinazoline], the half-maximal inhibitory concentration (IC50) was 24 µM in the experiment on HL-60 (leukemia) cells; 0.27 µM on PI3K-δ; 15 µM in [1]; 37 µM in [2]; 0.67 µM at PI3K-β; 0.115 µM at PI3K-α. In addition, the IC50 on PI3K-γ was 1.84 µM; in [3], 36 µM; in the experiment with A-375 (melanoma) cells it was 28 µM. Further, the “Fold-selectivity for PI3K-α with respect to -δ” value (from here on “Fold-selectivity for PI3K-α … -δ”) at PI3K-δ worked out at 2.3 fold. For the same compound, on PI3K-β, the “Fold-selectivity for PI3K-α with respect to -β” value (“Fold-selectivity for PI3K-α … -β” for short) stood at 5.8 fold. The “% Inhibition of PI3K-α at 0.5 μM” value at PI3K-α is 69.9%. Moreover, the “Fold-selectivity for PI3K-α with respect to -γ” value (“Fold-selectivity for PI3K-α … -γ” for short) on PI3K-γ was found to be 16 fold.

Turning to `N#CCc1ccc(Nc2ncnc3ccc(-c4cncc5ccccc45)cc23)cc1` [Compound 29, 6-(isoquinolin-4-yl)-4-(4-cyanomethyl)phenylamino-quinazoline], the 50% inhibitory concentration (IC50) with HL-60 (leukemia) cells is 10 µM; at PI3K-δ, 0.88 µM; in experiment [1], 12 µM; in [2] it was 9 µM; at PI3K-β it was more than 20 µM; on PI3K-α, 0.15 µM. Further, the half-inhibitory concentration (IC50) on PI3K-γ came to 8.44 µM; in experiment [3] it was 9 µM; in the experiment with A-375 (melanoma) cells, 12 µM. For the same compound, at PI3K-δ, the “Fold-selectivity for PI3K-α … -δ” value is 5.9 fold. Also, the “% inhibition of PI3K-β” value at PI3K-β (up to 20 μM) is 0%. In addition, the “Fold-selectivity for PI3K-α … -β” value at PI3K-β was more than 133 fold. Besides, at PI3K-α, the “% Inhibition of PI3K-α at 0.5 μM” value is reported as 48.8%. The compound also gave an inhibition at 0.5 µM on PI3K-α of more than 40%. The “Fold-selectivity for PI3K-α … -γ” value at PI3K-γ worked out at 56 fold.

Take `N#CCc1ccc(Nc2ncnc3ccc(-c4ccc5c(c4)OCCO5)cc23)cc1` [Compound 20, 6-(2,3-dihydrobenzo[b][1,4]dioxin-6-yl)-4-(4-cyanomethyl)phenylamino-quinazoline]: the 50% inhibitory concentration (IC50) in the experiment with HL-60 (leukemia) cells was 21 µM; at PI3K-δ, more than 10 µM; in [1] it was 34 µM; in experiment [2], 34 µM; on PI3K-β, more than 10 µM; at PI3K-α, 0.342 µM. Also, the IC50 worked out at 1.37 µM on PI3K-γ, 32 µM in [3] and 27 µM in the experiment with A-375 (melanoma) cells. The “Fold-selectivity for PI3K-α … -δ” value on PI3K-δ was more than 29.2 fold. The “Fold-selectivity for PI3K-α … -β” value on PI3K-β is more than 29.2 fold. Also, the inhibition at 0.5 µM on PI3K-α came to 33%. Moreover, the “Fold-selectivity for PI3K-α … -γ” value at PI3K-γ was determined as 4 fold.

`N#CCc1ccc(Nc2ncnc3ccc(-c4cnc5ccccc5c4)cc23)cc1` [Compound 27, 6-(quinolin-3-yl)-4-(4-cyanomethyl)phenylamino-quinazoline]: the half-inhibitory concentration (IC50) with HL-60 (leukemia) cells is 44 µM; in experiment [1], 32 µM; in experiment [2] it was 23 µM; in experiment [3], 90 µM; in the experiment on A-375 (melanoma) cells it was 89 µM. Besides, the inhibition at 0.5 µM against PI3K-α is less than 0%.

Consider `N#CCc1ccc(Nc2ncnc3ccc(-c4cccc5c4sc4ccccc45)cc23)cc1` [Compound 25, 6-(dibenzo(b,d)thiophene-4-yl)-4-(4-cyanomethyl)phenylamino-quinazoline], for which the IC50 was 31 µM in the experiment with HL-60 (leukemia) cells; 34 µM in experiment [1]; 18 µM in experiment [2]; 33 µM in experiment [3]; 34 µM in the experiment on A-375 (melanoma) cells. The inhibition at 0.5 µM at PI3K-α is less than 0%.

With `N#CCc1ccc(Nc2ncnc3ccc(-c4ccc(-c5ccccc5)cc4)cc23)cc1` [Compound 16, 6-(4-phenylphenyl)-4-(4-cyanomethyl)phenylamino-quinazoline], the IC50 in the experiment with HL-60 (leukemia) cells is 16 µM; in [1], 29 µM; in [2] it was 10 µM; in experiment [3] it was 30 µM; with A-375 (melanoma) cells it was 13 µM. On PI3K-α, this compound showed an inhibition at 0.5 µM of less than 0%.

As for `N#CCc1ccc(Nc2ncnc3ccc(-c4cc5ccccc5s4)cc23)cc1` [Compound 23, 6-(benzo[b]thiophen-2-yl)-4-(4-cyanomethyl)phenylamino-quinazoline], the concentration for half-maximal inhibition (IC50) in the experiment with HL-60 (leukemia) cells came out at 14 µM; in [1], 8 µM; in experiment [2] it was 13 µM; in [3], 24 µM; with A-375 (melanoma) cells, 14 µM. On PI3K-α, at 0.5 µM the inhibition was 2.7%.

Regarding `N#CCc1ccc(Nc2ncnc3ccc(-c4ccc(F)cc4F)cc23)cc1` [Compound 7, 6-(2,4-difluorophenyl)-4-(4-cyanomethyl)phenylamino quinazoline], the half-maximal inhibitory concentration (IC50) in the experiment with HL-60 (leukemia) cells stood at 7 µM; in experiment [1], 10 µM; in [2] it was 28 µM; in [3], 21 µM; in the experiment with A-375 (melanoma) cells, 9 µM. The inhibition at 0.5 µM against PI3K-α was determined as 17%.

On to `N#CCc1ccc(Nc2ncnc3ccc(-c4ccc(OCc5ccc(F)cc5)cc4)cc23)cc1` [Compound 14, 6-(4-fluorobenzyloxyphen-4-yl)-4-(4-cyanomethyl)phenylamino quinazoline], for which the concentration for half-maximal inhibition (IC50) turned out to be 14 µM with HL-60 (leukemia) cells; 12 µM in experiment [1]; 13 µM in experiment [2]; 13 µM in experiment [3]; 16 µM in the experiment with A-375 (melanoma) cells. The compound further displayed an inhibition at 0.5 µM against PI3K-α of 11%.

With `Cc1ccccc1-c1ccc2ncnc(Nc3ccc(CC#N)cc3)c2c1` [Compound 12, 6-(2-methylphenyl)-4-(4-cyanomethyl)phenylamino quinazoline], the half-inhibitory concentration (IC50) with HL-60 (leukemia) cells is 36 µM; in [1] it was more than 100 µM; in [2] it was 38 µM; in experiment [3] it was 68 µM; in the experiment on A-375 (melanoma) cells, 32 µM. 0.5 µM produced 4.1% inhibition against PI3K-α.

On to `N#CCc1ccc(Nc2ncnc3ccc(-c4ccc(-c5ccccc5)cc4F)cc23)cc1` [Compound 18, 6-(4-phenyl-2-fluorophenyl)-4-(4-cyanomethyl)phenylamino-quinazoline], for which the half-maximal inhibitory concentration (IC50) worked out at 16 µM in the experiment with HL-60 (leukemia) cells; 13 µM in experiment [1]; 14 µM in experiment [2]; 33 µM in experiment [3]; 32 µM with A-375 (melanoma) cells. At PI3K-α, this compound came in with an inhibition at 0.5 µM of 20.3%.

`N#CCc1ccc(Nc2ncnc3ccc(-c4cc5ccccc5o4)cc23)cc1` [Compound 22, 6-(benzofuran-2-yl)-4-(4-cyanomethyl)phenylamino-quinazoline]: the half-maximal inhibitory concentration (IC50) in the experiment on HL-60 (leukemia) cells worked out at 17 µM; in experiment [1], 9 µM; in [2] it was 8 µM; in [3] it was 28 µM; in the experiment on A-375 (melanoma) cells, 10 µM. This compound also yielded an inhibition at 0.5 µM against PI3K-α of 29.8%.

For `N#CCc1ccc(Nc2ncnc3ccc(-c4ccccc4)cc23)cc1` [Compound 6, 6-phenyl-4-(4-cyanomethyl)phenylamino quinazoline], the half-inhibitory concentration (IC50) with HL-60 (leukemia) cells came out at 32 µM; in [1] it was 23 µM; in experiment [2] it was 27 µM; in [3] it was 40 µM; in the experiment with A-375 (melanoma) cells, 24 µM. On PI3K-α, this compound showed an inhibition at 0.5 µM of 16.4%.

`N#CCc1ccc(Nc2ncnc3ccc(-c4ccc5ccccc5c4)cc23)cc1` [Compound 19, 6-(naphthalen-2-yl)-4-(4-cyanomethyl)phenylamino-quinazoline]: the concentration for half-maximal inhibition (IC50) in the experiment on HL-60 (leukemia) cells was determined as 25 µM; in experiment [1], 16 µM; in experiment [2], 22 µM; in experiment [3], 48 µM; with A-375 (melanoma) cells it was 31 µM. This compound also displayed an inhibition at 0.5 µM at PI3K-α of 8.2%.

For the origin of these results see patent publication US10202374B2, “6-aryl-4-phenylamino-quinazoline analogs as phosphoinositide-3-kinase inhibitors” (COUNCIL OF SCIENTIFIC & INDUSTRIAL RESEARCH, priority 2014, dated 2019).
